Measured values as given in patent US7879865B2, “Treatment of cancer of the brain using histone deacetylase inhibitors” (Sloan-Kettering Institute for Cancer Research, priority 2001, dated 2011).

Key:
[1] = test system: histone deacetylase (HDAC); assay: Acetylated histone levels in mouse tissues after IP injection (Western blot of isolated histones); format: in vivo; conditions: mice, three injections at 1 hour intervals, SAHA 100 mg/kg, pyroxamide 200 mg/kg
Method: FIG. […]
Each mouse was administered three injections at the indicated dose at 1 hour intervals. After the final IP injection tissues (brain, spleen or liver) were isolated at the times indicated. Histones were isolated from tissues essentially as described by Yoshida et al., (1990) J. Biol. Chem. 265:17174-17179. Equal amounts of histones (1 μg) were electrophoresed on 15% SDS-polyacrylamide gels and transferred to Hybond-P filters (Amersham). Filters were blocked with 3% milk and probed with a rabbit purified polyclonal anti-acetylated histone H4 antibody (αAc-H4) and anti-acetylated histone H3 antibody (αAc-H3) (Upstate Biotechnology, Inc.). Levels of acetylated histone were visualized using a horseradish peroxidase-conjugated goat anti-rabbit antibody (1:5000) and the SuperSignal chemiluminescent substrate (Pierce). As a loading control for the histone proteins, parallel gels were run and stained with Coomassie Blue (CB).

[2] = test system: histone deacetylase enzyme; conditions: cited from earlier work
tumor growth = conditions: cited from earlier work
[3] = test system: transformed cells in culture; conditions: cited from earlier work

## O=C(CCCCCCC(=O)Nc1ccccc1)NO [SAHA, suberoylanilide hydroxamic acid]
[1]
  crossing of the blood brain barrier: can cross the blood brain barrier
[2]
  binding to histone deacetylase enzyme: bind directly in the catalytic pocket of the histone deacetylase enzyme
Tumor growth; animals in tumor growth studies
  toxicity to the animal: no toxicity to the animal
Tumor growth; tumor
  accumulation of acetylated histones in the tumor: associated with an accumulation of acetylated histones in the tumor
[3]
  cell cycle arrest, differentiation and/or apoptosis: induces cell cycle arrest, differentiation and/or apoptosis of transformed cells in culture

## O=C(CCCCCCC(=O)Nc1cccnc1)NO [pyroxamide]
[1]
  crossing of the blood brain barrier: can cross the blood brain barrier
[1]; brain histones, anti-AcH3/AcH4 Western blot
  inhibition of HDAC activity / accumulation of acetylated histones in the brain: significantly inhibit HDAC activity causing the accumulation of acetylated histones in the brain
